Laboratory results from PubChem BioAssay (NCI).
Where “and” joins values, the source holds several entries; their conditions need not be identical. Equal values may be shown once.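 Values below derive from 48-hour exposures of cells grown in 96-well plates, with endpoints linearly interpolated between the two concentrations bracketing the appropriate inhibition level. GI50: concentration for 50% inhibition of growth. TGI denotes the concentration required for complete inhibition of growth.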

Legend:
Test in all cases: inhibition of tumour cell growth, NCI panel, 48 h
DU-145 prostate = system: DU-145 prostate
HCT-15 colon = system: HCT-15 colon
OVCAR-8 ovarian = system: OVCAR-8 ovarian
SF-268 CNS = system: SF-268 CNS
NCI-H226 lung = system: NCI-H226 lung
NCI-H460 lung = system: NCI-H460 lung
OVCAR-5 ovarian = system: OVCAR-5 ovarian
EKVX NSCLC = system: EKVX NSCLC
SN12C renal = system: SN12C renal
SF-295 CNS = system: SF-295 CNS

Compound	GI50 (DU-145 prostate)	TGI (DU-145 prostate)	GI50 (HCT-15 colon)	TGI (HCT-15 colon)	GI50 (OVCAR-8 ovarian)	TGI (OVCAR-8 ovarian)	GI50 (SF-268 CNS)	TGI (SF-268 CNS)	GI50 (NCI-H226 lung)	TGI (NCI-H226 lung)	GI50 (NCI-H460 lung)	TGI (NCI-H460 lung)	GI50 (OVCAR-5 ovarian)	TGI (OVCAR-5 ovarian)	GI50 (EKVX NSCLC)	TGI (EKVX NSCLC)	GI50 (SN12C renal)	TGI (SN12C renal)	GI50 (SF-295 CNS)	TGI (SF-295 CNS)
Cc1nn(-c2ccccc2)c(C)c1/C=N/N1CCN(Cc2ccccc2)CC1	96.4 µM	> 100 µM	30.4 µM	> 100 µM	> 100 µM	> 100 µM	38 µM	> 100 µM	27.8 µM	96.2 µM	33.5 µM	> 100 µM	> 100 µM	> 100 µM	> 100 µM	> 100 µM	> 100 µM	> 100 µM	> 100 µM	> 100 µM
Cc1cccc2c1NC(=O)C2(c1ccc(O)cc1)c1ccc(O)cc1	15.3 µM	55.4 µM	0.53 µM	> 100 µM	< 0.0192 µM	13.7 µM	19.8 µM	> 100 µM	18 µM	59 µM	18.5 µM	40.8 µM	12.8 µM	67.1 µM	16.4 µM	98.9 µM	< 0.01 µM	15.4 µM	12.6 µM	38.1 µM
COC(=O)c1cc(NC(=O)CN(CCN(CC(=O)O)CC(=O)Nc2ccc(O)c(C(=O)OC)c2)CC(=O)O)ccc1O	31.9 µM	> 100 µM	> 100 µM	> 100 µM	77.3 µM	> 100 µM	43.2 µM	> 100 µM	> 100 µM	> 100 µM	28.3 µM	> 100 µM	> 100 µM	> 100 µM	> 100 µM	> 100 µM	63.8 µM	> 100 µM	25.8 µM	> 100 µM
Cc1csc(-c2ccc3c(c2)COC3(CCCN(C)C)c2ccc(F)cc2)c1 (stereo not given)	1.91 µM	3.56 µM	1.85 µM	3.51 µM	2.35 µM	5.69 µM	1.68 µM	3.26 µM	1.92 µM	3.76 µM	1.9 µM	3.5 µM	1.63 µM	3.05 µM	1.77 µM	3.48 µM	1.79 µM	3.4 µM	1.84 µM	3.52 µM
COc1cccc2cc(-c3nc(C4CCC(C(=O)O)CC4)n4ncnc(N)c34)[nH]c12 (stereo not given)	1.22 µM and 1.63 µM	24.3 µM and > 10 µM	0.558 µM and 0.973 µM	> 100 µM	0.371 µM and 0.642 µM	3.78 µM and > 10 µM	0.294 µM and 0.301 µM	19.5 µM and > 10 µM	0.347 µM and 0.397 µM	> 7.79 µM	0.253 µM and 0.445 µM	17.7 µM and > 10 µM	0.289 µM and 0.658 µM	> 100 µM	0.478 µM and 1.03 µM	5.13 µM and > 10 µM	0.203 µM and 0.413 µM	> 100 µM	0.233 µM and 0.647 µM	2.1 µM and 4.36 µM
CN1CCN(CCCN2c3ccccc3Sc3ccc(C(F)(F)F)cc32)CC1	2.39 µM	5.48 µM and 23.3 µM and 30.1 µM	2.43 µM	6.57 µM and 17.3 µM and 21.3 µM	1.7 µM	3.36 µM and 33.4 µM and 30.5 µM	3.72 µM	14.3 µM and 25.4 µM and 26.2 µM	2.16 µM	6.41 µM and 32.8 µM and 32.2 µM	1.99 µM	4.15 µM and 5.21 µM and 12.1 µM	1.99 µM	4.28 µM and 24.9 µM and 23.2 µM	2.34 µM	10.8 µM and 27.9 µM and 28.3 µM	2.6 µM	12.8 µM and 22.2 µM and 26.1 µM	1.76 µM	3.68 µM and 15.8 µM and 23.2 µM
C=C(CN(C)C)C(=O)c1ccc(OC)cc1		10.7 µM		5.96 µM		3.17 µM		50.5 µM		29.4 µM		44.6 µM		29.8 µM		44.8 µM		7.1 µM		45.7 µM
Nc1ncnc2c1c(C(=O)NO)cn2C1OC(CO)C(O)C1O (stereo not given)	0.224 µM		0.213 µM	1.89 µM	0.353 µM	> 100 µM	0.397 µM		0.6 µM	5.51 µM	0.431 µM	9.19 µM	0.604 µM		0.776 µM	15.7 µM	0.244 µM	1.24 µM	0.193 µM	1.13 µM
CCc1cccc(CC)c1NC(=O)c1ccn2c1CCc1cnc(Nc3ccc(N4CCN(C)CC4)cc3OC)nc1-2	2.6 µM	15.8 µM	0.0413 µM	2.55 µM	2.19 µM	32.8 µM	3.14 µM	17.8 µM	14.7 µM	45.2 µM	0.0814 µM	10.7 µM	3.51 µM	22 µM	3.02 µM	19.6 µM	2.13 µM	13.9 µM	1.62 µM	3.73 µM
CCCN(CCC)c1ccc(/C=N/NC(=O)c2cccnc2)cc1	36.1 µM	> 100 µM	19.8 µM	> 100 µM	31.3 µM	> 100 µM	31.2 µM	> 100 µM	47.6 µM	> 100 µM	30.3 µM	> 100 µM	38 µM	> 100 µM	26.8 µM	> 100 µM	40.4 µM	> 100 µM	16.5 µM	55.6 µM
C(=C\c1nc2ccccc2s1)/c1ccc(N2CCOCC2)s1	48.8 µM	> 100 µM	17.1 µM	> 100 µM	35.5 µM	> 100 µM	44 µM	> 100 µM	43.3 µM	> 100 µM	51.3 µM	> 100 µM	66.9 µM	> 100 µM	30.1 µM	> 100 µM	43.3 µM	> 100 µM	24.2 µM	95.4 µM
CS(=O)(=O)N(CC(=O)O)Cc1ccccc1		> 100 µM		> 100 µM		> 100 µM		> 100 µM		> 100 µM		> 100 µM		> 100 µM		> 100 µM		> 100 µM		> 100 µM
Cc1cccc2c1ccc1c3occ(C)c3c(=O)oc21	> 100 µM	> 100 µM	> 100 µM	> 100 µM	> 100 µM	> 100 µM	> 100 µM	> 100 µM	> 100 µM	> 100 µM	93.1 µM	> 100 µM	> 100 µM	> 100 µM	76.6 µM	> 100 µM	> 100 µM	> 100 µM	> 100 µM	> 100 µM
O=c1cc(-c2ccccc2)nc2cc(-c3ccco3)[nH]n12	19.5 µM	79.7 µM	6.16 µM	> 100 µM	18 µM	> 100 µM	14.9 µM	> 100 µM	47.9 µM	> 100 µM	4.49 µM	20.6 µM	42.2 µM	> 100 µM	15.6 µM	78.3 µM	18.5 µM	> 100 µM	3.64 µM	25.6 µM
COc1ccc2c(c1)c(-c1nc(-c3cn(C)c4ncccc34)cs1)cn2CCCCN1CCOCC1	1.71 µM	5.05 µM	0.627 µM	1.47 µM	2.3 µM	5.43 µM	1.49 µM	3.3 µM	2.53 µM	8.81 µM	1.19 µM	2.91 µM	1.68 µM	4.03 µM	1.54 µM	4.77 µM	3.28 µM	9.22 µM	1.57 µM	3.48 µM
CC(C)NCCCCCNc1cc(O)cc2cccnc12	> 100 µM	> 100 µM	> 100 µM	> 100 µM	> 100 µM	> 100 µM	> 100 µM	> 100 µM	> 100 µM	> 100 µM	> 100 µM	> 100 µM	> 100 µM	> 100 µM	22.8 µM	> 100 µM	> 100 µM	> 100 µM	> 100 µM	> 100 µM
Cc1ccc2nc(CC(=O)c3ccc4ccccc4c3)c(=O)[nH]c2c1		> 100 µM		> 100 µM		> 100 µM		> 100 µM		> 100 µM		> 100 µM		> 100 µM		> 100 µM		> 100 µM		> 100 µM
CNc1ccc(C(=O)CC(O)CCC(C)C2OC(=O)CC(O)CC(=O)CC(O)CC(O)CC(O)CC(O)CC3(O)CC(O)C(C(=O)NCCc4ccccn4)C(CC(OC4OC(C)C(O)C(N)C4O)/C=C/C=C/C=C/C=C\C=C/C=C/C=C/C2C)O3)cc1 (stereo not given)	0.183 µM	0.672 µM	4.75 µM	> 50 µM	0.747 µM		0.141 µM	0.439 µM	2.29 µM	9.71 µM	0.238 µM	> 17.8 µM	0.323 µM	2.02 µM	0.134 µM	0.49 µM	0.961 µM	2.09 µM	1.05 µM	11.4 µM
O=C(Nc1ccc(Cl)cc1F)c1cc(Cl)ccc1O	0.915 µM	> 42.8 µM	0.519 µM		0.619 µM	> 37.2 µM	0.52 µM	> 27.6 µM	0.429 µM	7.21 µM	0.44 µM		2.74 µM	> 100 µM	0.891 µM	8.27 µM	0.345 µM	3.95 µM	0.99 µM	2.67 µM
NCC(=O)NC(CO)C(=O)O (stereo not given)		> 100 µM		> 100 µM		> 100 µM		> 100 µM		> 100 µM		> 100 µM		> 100 µM		> 100 µM		> 100 µM		> 100 µM
COc1ccc(NC(=O)CC(=O)n2nc(-c3ccccc3)c(N=Nc3ccccc3C)c2-c2ccccc2)cc1		> 100 µM		> 61.3 µM		66 µM		35.7 µM		63.7 µM		53.5 µM		> 100 µM		45.2 µM		> 88.5 µM		45.6 µM
COc1cc(/C=N/Nc2ncnc3c2cnn3Cc2ccccc2)ccc1O	12.2 µM	> 25 µM	> 25 µM	> 25 µM	5.85 µM	> 19.8 µM	5.34 µM	14.3 µM	10.3 µM	> 25 µM	8.98 µM	> 25 µM	> 25 µM	> 25 µM	> 25 µM	> 25 µM	> 15.8 µM	> 25 µM	> 25 µM	> 25 µM
O=C(Nc1ccc(O)c(NS(=O)(=O)c2ccc(F)cc2)c1)c1ccc(-c2ccccc2)cc1	11.7 µM	26.3 µM	4.36 µM	17.3 µM	5.32 µM	> 100 µM	6.49 µM	33.2 µM	4.96 µM	23.8 µM	3.85 µM	15.9 µM	13.6 µM	27 µM	7.17 µM	26.4 µM	9.79 µM	21.7 µM	9.71 µM	24 µM
Cc1[nH]c2ccccc2c1C1=CC(=O)C=CC1=O	13.4 µM	26.8 µM	10.9 µM	27.1 µM	13.2 µM	34.9 µM	13.1 µM	27.4 µM	15.6 µM	30.9 µM	15.5 µM	42.2 µM	17.7 µM	32.8 µM	17.7 µM	45 µM	14.4 µM	32 µM	16.4 µM	41 µM
COc1ccc(OC)c(-c2cc(C(=O)O)c3cc4ccccc4cc3n2)c1		> 100 µM		> 100 µM		> 100 µM		> 100 µM		> 100 µM		> 100 µM		> 100 µM		> 100 µM		> 100 µM		> 100 µM
C/C=C(\C)C(=O)OC1C2C(C)C(=O)OC2C(O)C(C)C2C=CC(=O)C21C (stereo not given)		24.7 µM		34.5 µM		34.8 µM		56.5 µM		46.5 µM		20.6 µM		38.8 µM		38 µM		43.1 µM		32.7 µM
CCCC(=O)Nc1ncnc2c1ncn2C1OC2COP(=O)(O)OC2C1OC(=O)CCC (stereo not given)	> 1000 µM	> 1000 µM	> 1000 µM	> 1000 µM	> 1000 µM	> 1000 µM	> 1000 µM	> 1000 µM	> 1000 µM	> 1000 µM			> 1000 µM	> 1000 µM	> 1000 µM	> 1000 µM	> 1000 µM	> 1000 µM	> 1000 µM	> 1000 µM
COc1cc(CCNc2nc3cc(N)cc(N)c3nc2-c2ccccc2)cc(OC)c1	5.48 µM	17.8 µM	2.43 µM	7.42 µM			1.74 µM	3.72 µM	2.16 µM	4.87 µM	3.25 µM	10.9 µM	1.83 µM	3.69 µM	1.8 µM	3.4 µM	1.67 µM	3.12 µM	1.77 µM	3.47 µM
